From patent publication US20230118467A1, “COSMETIC OR PHARMACEUTICAL USE OF AVENANTHRAMIDE L” (priority 2020, published 2023) come the findings set out here.

Several values for one entry are separate records, joined by “and”; a condition that tells them apart may be missing. Identical values can stand only once.

The test system of data set [1] is HSP90AB1. Briefly: Gene expression in neonatal human epidermal keratinocytes (real-time PCR): HSP90AB1. Conditions: 100 μM, 24 hours, nHEK, vs DMSO vehicle, RQ ≥2.0 relevant. In kind it is cell-based. As for the experimental part:
(§1) Neonatal human epidermal keratinocytes (nHEK) were cultivated in an EpiLife® medium (Gibco) including an HKGS kit (Gibco) with 5% C02 at 37° C. in accordance with the supplier's instructions.
(§2) The cells were treated for 24 hours, with the test compounds dissolved in DMSO and DMSO alone as the vehicle control. Genomic target expression levels in treated cells were measured using a quantitative Real-Time PCR comparison to vehicle control treatment.
(§3) RNA was isolated using Qiagen's RNeasy® Mini Kit. The total RNA concentrations were measured using Eppendorf's pCuvetteG 1.0 and BioPhotometer, by measuring the absorption at 260 nm. Purity control values such as E260/280 and E260/230 were calculated simultaneously. Reverse transcription was performed using the high-capacity RNA-to-cDNA kit of Applied Biosystems, in accordance with the supplier's instructions. Samples were treated in Biometra's PCR Thermocycler.
(§4) For fast real-time PCR, the cDNA was diluted with RNase-free water, and the TaqMan™ Fast Universal PCR Master Mix of Applied Biosystems was used.
(§5) Quantitative real-time PCR was performed using the StepOnePlus fast real-time PCR instrument by Applied Biosystems. Analysis was conducted using the StepOne software and 2^−ΔΔct method (normalised to endogenous control […] expression).
(§6) For upregulations, RQ values ≥2.0 are considered to be relevant.

The nature of data set [2]: Oxidative stability (Oxipress) of avenanthramides in solution. Conditions: for Content after treatment: 5 bars of oxygen at 70° C. for 24 hours; for Content before treatment: HPLC.
Method: Stability under exposure to oxygen and temperature was evaluated for dissolved pure avenanthramides in aqueous ethanolic solution, both alone and as an avenanthramide mixture.
Avenantharmide mixtures used were DragoCalm® (Symrise; INCI Name: Aqua, Glycerin, Avena Sativa Kernel Extract) or DragoCalm® SP (Symrise; INCI Name: Aqua, Glycerin, Pentylene Glycol, Avena Sativa Kernel Extract).
The liquids were either exposed to 5 bars of oxygen at 70° C. for 24 hours using the Oxipress device or stored for 2 and 4 weeks at 40° C. in a heating cabinet.
The content of Avns was determined by HPLC, and the colour was measured by colorimetry (Hach Lange Lico 690 instrument) before and after treatment.
Color can be determined using the CIELAB color model which is based on an opponent color system. CIELAB indicates the color by values on three axes: L*, a*, and b* with dimension L for lightness and a* and b* for the color-opponent dimensions red/green and yellow/blue, based on nonlinearly compressed coordinates. The L* axis extends from black (0) to white (100), the a* axis from green (−a) to red (+a) and the b* axis from blue (−b) to yellow (+b).
The difference of 2 colors ΔE can be calculated using the following equation:
ΔEp,v=√{square root over ((Lp*−Lv*)^2+(ap*−av*)^2+bp*−bv*)^2)}
with p=sample 1 and v=sample 2
A difference of ΔE of 0.5-1 can be visually observed by a trained evaluator by naked eye. A difference of 2-4 can be observed visually also by a non-trained evaluator.
For data set [3], the target named is T1, tachykinin NK1 receptor (Homo sapiens, UniProt P25103).
T1 construct: expressed in transfected cells; host or cells: CHO cells
T1 sequence (P25103 whole entry): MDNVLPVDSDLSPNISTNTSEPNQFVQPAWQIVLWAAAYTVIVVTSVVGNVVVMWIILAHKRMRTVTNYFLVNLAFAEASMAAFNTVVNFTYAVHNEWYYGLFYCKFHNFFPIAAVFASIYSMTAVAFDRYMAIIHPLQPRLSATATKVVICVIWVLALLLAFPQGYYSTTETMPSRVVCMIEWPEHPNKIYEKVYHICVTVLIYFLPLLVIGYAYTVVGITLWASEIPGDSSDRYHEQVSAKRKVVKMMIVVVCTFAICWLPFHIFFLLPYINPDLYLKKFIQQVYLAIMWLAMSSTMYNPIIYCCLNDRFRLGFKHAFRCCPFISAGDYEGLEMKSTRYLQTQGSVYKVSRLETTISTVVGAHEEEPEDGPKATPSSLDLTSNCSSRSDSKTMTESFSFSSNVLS
The experiment in a line: NK1 receptor inhibition study, radioligand binding assay ([3H] Substance P). Conditions: read-out: Percent inhibition of specific binding to the tachykinin NK1 receptor. The method, then:
The inhibition activity of avenanthramide L versus dihydroavenanthramide D and the structurally related avenanthramides A and D was evaluated in a radioligand binding assay.
The method employed in this study was adapted from the scientific literature so as to maximise reliability and reproducibility. Reference compound L-703,606 was run as an integral part of each experiment, to ensure the validity of the results obtained. The assay was performed under the conditions described in the following respective method.
Source: Human recombinant CHO cells
Incubation time/temperature: 90 minutes at 4° C. Incubation buffer: 20 mM HEPES, pH 7.4, • 1 mM MnCl2 • 0.1% BSA
Ligand: 0.80 nM [3H] Substance P
Non-specific ligand: 10.0 μM L-703,606 oxalate salt (CAS 144425-84-3) Specific binding: 90% Significance criteria: ≥50% of max. stimulation or inhibition Bmax: 1.70 pmol/mg protein
In another experiment, the inhibitory activity of a combination of avenanthramide L and another avenanthramide was evaluated in comparison to both substances alone in the radioligand binding assay as described in Example 1 to investigate a potential synergism.

In data set [4] the test system is CRYAB. Briefly: Gene expression in neonatal human epidermal keratinocytes (real-time PCR): CRYAB. The data set is classed as cell-based. Conditions: 100 μM, 24 hours, nHEK, vs DMSO vehicle, RQ ≥2.0 relevant. The method, then: as §1, §2, §3, §4, §5, §6
Background: Quantitative PCR measures a nucleic acid by following its amplification.

[5] abbreviates: Avn in mixture DragoCalm SP (glycerin/water).
Setting [6] is: single Avn in aqueous ethanolic solution (0.01 wt %).

Regarding `O=C(/C=C/C=C/c1ccc(O)cc1)Nc1ccc(O)cc1C(=O)O` [Avn L, 5-hydroxy-2-[(2E,4E)-5-(4-hydroxyphenyl)penta-2,4-dienamido]benzoic acid], the “RQ value, HSP90AB1” value in data set [1] was 0.4 and 0.5; in data set [1] (listed as avenanthramide L), “no effect”. Moreover, the Content after treatment in data set [2] (setting [5]) worked out at 7 ppm; in data set [2] (setting [6]), 100 ppm. Further, the Content before treatment in data set [2] (setting [5]) worked out at 8 ppm; in data set [2] (setting [6]), 103 ppm. Further, in data set [2] (single Avn in aqueous ethanolic solution (0.01 wt %), before vs after 5 bars of oxygen at 70° C. for 24 hours), the “ΔE (colour difference, CIELAB)” value is 0.6. For the same compound, the inhibition (commonly the change of the read-out against control, counted positive when it falls) at 0.1 ppm in data set [3] (test concentration 0.1 ppm) turned out to be 9%. Also, the inhibition at 1 ppm in data set [3] (test concentration 1 ppm) was determined as 15%. The inhibition at 10 ppm in data set [3] (test concentration 10 ppm) stood at 20%. Moreover, in data set [3] (test concentration 100 ppm), the inhibition at 100 ppm amounted to 42%. In addition, the inhibition at 125 ppm in data set [3] (test concentration 125 ppm (Example 7)) was 37%. Moreover, the “RQ value, CRYAB” value was 2.1 and 1.6 in data set [4]; “upregulates” in data set [4] (listed as avenanthramide L).
